Format in all cases: cell-based
The test system of assay [1] is Acinetobacter baumannii ATCC 17978. The note with it: ATCC 17978. The method, boiled down: (§1)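 Broth microdilution, CAMHB, per CLSI M100-S24; lipopeptides as TFA salts; polymyxin B sulphate control. Read-out: MIC. Strains are polymyxin-susceptible; PA022 and AB034 are MDR clinical isolates.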
Assay [2] relates to Acinetobacter baumannii FADDI-AB034. The note with it: FADDI-AB034. A digest of the protocol: as §1
Assay [3] relates to Enterobacter cloacae FADDI-EC001. The note with it: FADDI-EC001. The method, boiled down: (§2)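 Lipopeptide TFA salts were serially diluted in cation-adjusted Mueller-Hinton broth, inoculated with polymyxin-susceptible Gram-negative bacteria and scored for MIC according to CLSI guidance (M100-S24). Polymyxin B sulphate was included as comparator.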
For assay [4], the system named is Enterobacter cloacae FADDI-EC003. To be noted: FADDI-EC003. A digest of the protocol:
as §1

In assay [5] the test system is Enterobacter cloacae FADDI-EC006. The note with it: FADDI-EC006. A digest of the protocol: as §1
Assay [6] deals with Klebsiella pneumoniae FADDI-KP022. To be noted: FADDI-KP022. A digest of the protocol: as §1
Assay [7] has as its system Klebsiella pneumoniae FADDI-KP032. To be noted: FADDI-KP032. The method, boiled down: as §1
In assay [8] the test system is Klebsiella pneumoniae Kp BM1. To be noted: Kp BM1. A digest of the protocol: as §2
Assay [9] concerns Pseudomonas aeruginosa ATCC 27853. The note with it: ATCC 27853. A digest of the protocol: as §1
Assay [10] relates to Pseudomonas aeruginosa FADDI-PA01. The note with it: FADDI-. A digest of the protocol: as §1
Assay [11] concerns Pseudomonas aeruginosa FADDI-PA022. The note with it: FADDI-PA022. A digest of the protocol:
as §1

Assay [12] has as its system Pseudomonas aeruginosa FADDI-PA038. To be noted: FADDI-PA038. The method, boiled down: as §1
The subject of assay [13] is Acinetobacter baumannii FADDI-AB030. The assay can be described thus: microbe, parasite or virus in culture. To be noted: FADDI-AB030. A digest of the protocol:
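Lipopeptide TFA salts tested against the multidrug-resistant clinical isolate by CLSI (M100-S24) broth microdilution in cation-adjusted Mueller-Hinton broth, with polymyxin B sulphate as control; MIC read.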

In brackets after ≈: the same amount, converted by molar mass. Where a SMILES comes first, the peptide text is derived from it. Bridges are numbered along the chain shown (N, C = ends). [ ]: non-standard residue; d: D form. The star is where a group is joined. Quinoxaline2carbonyl = O=C(c1cnc2ccccc2n1)*; X24 = O=C(c1cccc(C(F)(F)F)n1)*; X49 = O=C(c1cnc(C(F)(F)F)nc1)*; X42 = O=C(c1nc2ccccc2[nH]1)*; X12 = CCc1ccc(C(=O)*)nc1; X54 = O=C(c1cccc(Cl)n1)*; Dab = NCC[C@H](N)C(=O)O; Abu = CC[C@H](N)C(=O)O; Dap = NC[C@H](N)C(=O)O

For the molecule `CCc1ccc(C(=O)N[C@@H](CCN)C(=O)N[C@H](C(=O)N[C@@H](CN)C(=O)N[C@H]2CCNC(=O)[C@H]([C@@H](C)O)NC(=O)[C@H](CCN)NC(=O)[C@H](CCN)NC(=O)[C@H](CC)NC(=O)[C@@H](CC(C)C)NC(=O)[C@H](CCN)NC2=O)[C@@H](C)O)nc1` [Compound 42] (X12-[Dab]T[Dap][Dab][Dab][dL][Abu][Dab][Dab]T; lactam 4-C), the Minimum inhibitory concentration is 1 µg/mL (≈ 0.893 µM) in [1]; 0.5 µg/mL (≈ 0.446 µM) in [2]; under 0.125 µg/mL in [3]; under 0.125 µg/mL in assay [4]; under 0.125 µg/mL in [5]; under 0.125 µg/mL in assay [6]. For the same molecule, the Minimum inhibitory concentration is under 0.125 µg/mL in assay [7]; 0.25 µg/mL (≈ 0.223 µM) in assay [8]; under 0.125 µg/mL in assay [9]; under 0.125 µg/mL in assay [10]; under 0.125 µg/mL in [11]; 0.25 µg/mL (≈ 0.223 µM) in assay [12]. For the same molecule, in assay [13], the Minimum inhibitory concentration was under 0.125 µg/mL.
As to `CC[C@@H]1NC(=O)[C@@H](CC(C)C)NC(=O)[C@H](CCN)NC(=O)[C@@H](NC(=O)[C@H](CN)NC(=O)[C@@H](NC(=O)[C@H](CCN)NC(=O)c2cccc(Cl)n2)[C@@H](C)O)CCNC(=O)[C@H]([C@@H](C)O)NC(=O)[C@H](CCN)NC(=O)[C@H](CCN)NC1=O` [Compound 43] (X54-[Dab]T[Dap][Dab][Dab][dL][Abu][Dab][Dab]T; lactam 4-C), the Minimum inhibitory concentration was 4 µg/mL (≈ 3.55 µM) in assay [1]; 4 µg/mL (≈ 3.55 µM) in assay [2]; under 0.125 µg/mL in assay [3]; 0.25 µg/mL (≈ 0.222 µM) in assay [4]; 0.5 µg/mL (≈ 0.444 µM) in [5]; under 0.125 µg/mL in assay [6]. Besides, the Minimum inhibitory concentration was 0.25 µg/mL (≈ 0.222 µM) in [7]; 0.25 µg/mL (≈ 0.222 µM) in assay [8]; 0.25 µg/mL (≈ 0.222 µM) in assay [9]; 0.25 µg/mL (≈ 0.222 µM) in assay [10]; 0.25 µg/mL (≈ 0.222 µM) in assay [11]; 1 µg/mL (≈ 0.888 µM) in assay [12]. The Minimum inhibitory concentration in assay [13] is 4 µg/mL (≈ 3.55 µM).
Take `CC[C@@H]1NC(=O)[C@@H](CC(C)C)NC(=O)[C@H](CCN)NC(=O)[C@@H](NC(=O)[C@H](CN)NC(=O)[C@@H](NC(=O)[C@H](CCN)NC(=O)c2cccc(C(F)(F)F)n2)[C@@H](C)O)CCNC(=O)[C@H]([C@@H](C)O)NC(=O)[C@H](CCN)NC(=O)[C@H](CCN)NC1=O` [Compound 44] (X24-[Dab]T[Dap][Dab][Dab][dL][Abu][Dab][Dab]T; lactam 4-C): the Minimum inhibitory concentration was 2 µg/mL (≈ 1.72 µM) in assay [1]; 2 µg/mL (≈ 1.72 µM) in [2]; under 0.125 µg/mL in [3]; under 0.125 µg/mL in [4]; 0.5 µg/mL (≈ 0.431 µM) in [5]; under 0.125 µg/mL in assay [6]. Further, the Minimum inhibitory concentration in assay [7] is under 0.125 µg/mL; in [8], under 0.125 µg/mL; in assay [9], under 0.125 µg/mL; in assay [10] it was under 0.125 µg/mL; in assay [11], 0.25 µg/mL (≈ 0.215 µM); in [12], 0.5 µg/mL (≈ 0.431 µM). In [13], this molecule yielded a Minimum inhibitory concentration of 1 µg/mL (≈ 0.862 µM).
For `CC[C@@H]1NC(=O)[C@@H](CC(C)C)NC(=O)[C@H](CCN)NC(=O)[C@@H](NC(=O)[C@H](CN)NC(=O)[C@@H](NC(=O)[C@H](CCN)NC(=O)c2cnc(C(F)(F)F)nc2)[C@@H](C)O)CCNC(=O)[C@H]([C@@H](C)O)NC(=O)[C@H](CCN)NC(=O)[C@H](CCN)NC1=O` [Compound 45] (X49-[Dab]T[Dap][Dab][Dab][dL][Abu][Dab][Dab]T; lactam 4-C), the Minimum inhibitory concentration in [1] was 2 µg/mL (≈ 1.72 µM); in assay [2], 0.5 µg/mL (≈ 0.431 µM); in assay [3], under 0.125 µg/mL; in assay [4] it was 2 µg/mL (≈ 1.72 µM); in assay [5] it was 2 µg/mL (≈ 1.72 µM); in assay [6], under 0.125 µg/mL. The Minimum inhibitory concentration was 0.5 µg/mL (≈ 0.431 µM) in assay [7]; 0.5 µg/mL (≈ 0.431 µM) in assay [8]; 0.25 µg/mL (≈ 0.215 µM) in assay [9]; under 0.125 µg/mL in assay [10]; 0.25 µg/mL (≈ 0.215 µM) in assay [11]; 1 µg/mL (≈ 0.861 µM) in [12]. In assay [13], the Minimum inhibitory concentration came to 0.5 µg/mL (≈ 0.431 µM).
Turning to `CC[C@@H]1NC(=O)[C@@H](CC(C)C)NC(=O)[C@H](CCN)NC(=O)[C@@H](NC(=O)[C@H](CN)NC(=O)[C@@H](NC(=O)[C@H](CCN)NC(=O)c2cnc3ccccc3n2)[C@@H](C)O)CCNC(=O)[C@H]([C@@H](C)O)NC(=O)[C@H](CCN)NC(=O)[C@H](CCN)NC1=O` [Compound 46] (Quinoxaline2carbonyl-[Dab]T[Dap][Dab][Dab][dL][Abu][Dab][Dab]T; lactam 4-C), the Minimum inhibitory concentration was 4 µg/mL (≈ 3.5 µM) in assay [1]; 4 µg/mL (≈ 3.5 µM) in [2]; 0.25 µg/mL (≈ 0.219 µM) in assay [3]; 0.25 µg/mL (≈ 0.219 µM) in [4]; 2 µg/mL (≈ 1.75 µM) in assay [5]; under 0.125 µg/mL in assay [6]. In addition, the Minimum inhibitory concentration was under 0.125 µg/mL in assay [7]; 0.25 µg/mL (≈ 0.219 µM) in [8]; 0.5 µg/mL (≈ 0.437 µM) in assay [9]; 0.25 µg/mL (≈ 0.219 µM) in assay [10]; 0.5 µg/mL (≈ 0.437 µM) in assay [11]; 0.5 µg/mL (≈ 0.437 µM) in assay [12]. In addition, in [13], the Minimum inhibitory concentration was found to be 2 µg/mL (≈ 1.75 µM).
On to `CC[C@@H]1NC(=O)[C@@H](CC(C)C)NC(=O)[C@H](CCN)NC(=O)[C@@H](NC(=O)[C@H](CN)NC(=O)[C@@H](NC(=O)[C@H](CCN)NC(=O)c2nc3ccccc3[nH]2)[C@@H](C)O)CCNC(=O)[C@H]([C@@H](C)O)NC(=O)[C@H](CCN)NC(=O)[C@H](CCN)NC1=O` [Compound 47] (X42-[Dab]T[Dap][Dab][Dab][dL][Abu][Dab][Dab]T; lactam 4-C), for which the Minimum inhibitory concentration is 1 µg/mL (≈ 0.884 µM) in assay [1]; 1 µg/mL (≈ 0.884 µM) in assay [2]; under 0.125 µg/mL in assay [3]; under 0.125 µg/mL in [4]; 0.5 µg/mL (≈ 0.442 µM) in [5]; under 0.125 µg/mL in assay [6]. Also, the Minimum inhibitory concentration in assay [7] was 0.25 µg/mL (≈ 0.221 µM); in assay [8], 0.25 µg/mL (≈ 0.221 µM); in [9], 0.5 µg/mL (≈ 0.442 µM); in assay [10] it was under 0.125 µg/mL; in [11], 0.25 µg/mL (≈ 0.221 µM); in [12] it was 0.5 µg/mL (≈ 0.442 µM). In [13], this molecule showed a Minimum inhibitory concentration of 0.25 µg/mL (≈ 0.221 µM).

The values are drawn from patent publication US11225505B2, “Antimicrobial polymyxin derivative compounds” (MONASH UNIVERSITY, priority 2015, dated 2022).
